Where two headings read alike, the source gives them in different places.
Legend:
[1] = system: non-growing UPEC CFT073; test: Dilution-regrowth assay (screen, hit validation, dose-response) on stationary-phase UPEC; format: cell-based, Escherichia coli; conditions: for EC50: Escherichia coli; for activity against non-growing UPEC in LPM (pH 5.5) compared to 1:4 CA-MHB (pH 7.4): regrowth delay and killing, Figs. 2 and 3; for Regrowth, OD600 at 6h or 8h after dilution into drug-free medium: average; for Regrowth: OD600 after dilution into drug-free medium (mean): OD600 at 6h or 8h
Summary of the method: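 Regrowth (OD600 after 6 h, 37 °C) of diluted non-growing CFT073, following 24 h compound treatment of 24 h stationary cultures, defines activity relative to untreated control. Screen at 20 µM, validation at 20, 10, 5 µM (duplicates), dose–response in three biological replicates fitted by five-parameter logistic.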

[2] = system: non-growing S. aureus DSM2569; test: Dilution-regrowth assay (OD600, start-growth-time) on stationary-phase S. aureus; format: cell-based, Staphylococcus aureus; conditions: S. aureus; for EC50: regrowth delay of non-growing bacteria, 1:4 CA-MHB pH 7.4, 24 h treatment, OD600 8 h after dilution; for Regrowth, OD600 at 6h or 8h after dilution into drug-free medium: average; for Regrowth: OD600 after dilution into drug-free medium (mean): OD600 at 6h or 8h
Method: The cultures were grown and treated for 24 h in 1:4 CA-MHB (pH 7.4).
This approach allowed us to capture the time when cultures reached a threshold optical density (start-growth-time, SGT[15]).
The cultures were incubated for 24 h in non-baffled Erlenmeyer flasks at 37 °C with shaking at 200 rpm.
For P. aeruginosa and S. aureus, dose–response analysis was conducted in 96-well plates with a 200 μl assay volume, following the procedure used for screening assay validation experiments. […] Stock solutions were prepared and stored according to the manufacturers’ instructions, then diluted in 10% DMSO before use. Cultures were incubated for 24 h in 1:4 diluted CA-MHB medium under the same conditions used for UPEC cultivation. In preliminary experiments, each compound was tested at a concentration of 20 μM in the dilution-regrowth assay with 4 technical replicates. Regrowth was monitored using a microplate reader at 37 °C with continuous shaking, and OD600 was recorded every 20 min. The time at which OD600 exceeded the threshold of 0.12 was recorded as the Start_Growth-Time.
Statistical significance of the drug effects was assessed using a one-way ANOVA followed by Dunnett’s test, comparing each treatment to the drug-free control. Statistical significance of the differences in chemical characteristics between the hit compounds and the Prestwick library was assessed using a Mann–Whitney test. Statistical significance was set at P ≤ 0.05. A five-parameter logistic equation was used for asymmetric sigmoidal curve fitting and for EC50 and IC50 determination. The Venn diagram in Fig. 1F was prepared using BioVenn web application. Characteristics of the chemical and physical properties of Prestwick library compounds were obtained from Supplementary Table S1 from reference. Characteristics of the hit compounds not included in the Prestwick library were retrieved from the PubChem database.

[3] = E. coli in 1:4 CA-MHB (pH 7.4), drug concentration 0.25
[4] = E. coli in 1:4 CA-MHB (pH 7.4), drug concentration 0.5
[5] = E. coli in 1:4 CA-MHB (pH 7.4), drug concentration 1
[6] = E. coli in 1:4 CA-MHB (pH 7.4), drug concentration 2.5
[7] = E. coli in 1:4 CA-MHB (pH 7.4), drug concentration 5
[8] = E. coli in 1:4 CA-MHB (pH 7.4), drug concentration 10
[9] = E. coli in 1:4 CA-MHB (pH 7.4), drug concentration 30
[10] = E. coli in LPM (pH 5.5), drug concentration 0.25
[11] = E. coli in LPM (pH 5.5), drug concentration 0.5
[12] = E. coli in LPM (pH 5.5), drug concentration 1
[13] = E. coli in LPM (pH 5.5), drug concentration 2.5
[14] = E. coli in LPM (pH 5.5), drug concentration 5
[15] = E. coli in LPM (pH 5.5), drug concentration 10
[16] = E. coli in LPM (pH 5.5), drug concentration 30
[17] = 1:4 CA-MHB pH 7.4 (black curve), medium assigned by comparison with Dataset 1, read-out: EC50 (regrowth inhibition curve, Fig. S4)
[18] = E. coli, pH 7.4, regrowth delay of non-growing bacteria, 1:4 CA-MHB, 24 h treatment, OD600 6 h after 2500-fold dilution, read-out: EC50
[19] = LPM pH 5.5 (red curve), medium assigned by comparison with Dataset 1, read-out: EC50 (regrowth inhibition curve, Fig. S4)
[20] = Staphylococcus aureus, DSM2569, read-out: EC50
[21] = E. coli in 1:4 CA-MHB (pH 7.4), concentration 0.25
[22] = E. coli in 1:4 CA-MHB (pH 7.4), concentration 0.5
[23] = E. coli in 1:4 CA-MHB (pH 7.4), concentration 1
[24] = E. coli in 1:4 CA-MHB (pH 7.4), concentration 2.5
[25] = E. coli in 1:4 CA-MHB (pH 7.4), concentration 5
[26] = E. coli in LPM (pH 5.5), concentration 0.25
[27] = E. coli in LPM (pH 5.5), concentration 0.5
[28] = E. coli in LPM (pH 5.5), concentration 1
[29] = E. coli in LPM (pH 5.5), concentration 2.5
[30] = E. coli in LPM (pH 5.5), concentration 5

Row | Compound | Regrowth, OD600 at 6h or 8h after dilution into drug-free medium (average) [1, 3] | Regrowth, OD600 at 6h or 8h after dilution into drug-free medium (average) [1, 4] | Regrowth, OD600 at 6h or 8h after dilution into drug-free medium (average) [1, 5] | Regrowth, OD600 at 6h or 8h after dilution into drug-free medium (average) [1, 6] | Regrowth, OD600 at 6h or 8h after dilution into drug-free medium (average) [1, 7] | Regrowth, OD600 at 6h or 8h after dilution into drug-free medium (average) [1, 8] | Regrowth, OD600 at 6h or 8h after dilution into drug-free medium (average) [1, 9] | Regrowth, OD600 at 6h or 8h after dilution into drug-free medium (average) [1, 10] | Regrowth, OD600 at 6h or 8h after dilution into drug-free medium (average) [1, 11] | Regrowth, OD600 at 6h or 8h after dilution into drug-free medium (average) [1, 12] | Regrowth, OD600 at 6h or 8h after dilution into drug-free medium (average) [1, 13] | Regrowth, OD600 at 6h or 8h after dilution into drug-free medium (average) [1, 14] | Regrowth, OD600 at 6h or 8h after dilution into drug-free medium (average) [1, 15] | Regrowth, OD600 at 6h or 8h after dilution into drug-free medium (average) [1, 16] | EC50 [1, 17] | EC50 [1, 18] | EC50 [1, 19] | activity against non-growing UPEC in LPM (pH 5.5) compared to 1:4 CA-MHB (pH 7.4) [1] | Regrowth, OD600 at 6h or 8h after dilution into drug-free medium (average) ([2]; drug concentration 10) | EC50 [2, 20] | also measured
1 | CCCCC(CC)CNC(=N)NC(=N)NCCCCCCNC(=N)NC(=N)NCC(CC)CCCC (centres unmarked) [Alexidine] | 0.643 | 0.630 | 0.631 | 0.636 | 0.622 | 0.568 | 0.074 | 0.604 | 0.591 | 0.602 | 0.604 | 0.576 | 0.067 | 0.069 | 23.4 µM | 15.6 µM | 7.18 µM | potentiated by the low pH | 0.087 | 3.28 µM | Regrowth, OD600 at 6h or 8h after dilution into drug-free medium (average) ([2]; drug concentration 0.1): 0.539; Regrowth, OD600 at 6h or 8h after dilution into drug-free medium (average) ([2]; drug concentration 0.5): 0.527; Regrowth, OD600 at 6h or 8h after dilution into drug-free medium (average) ([2]; drug concentration 2.5): 0.433
2 | Plicamycin | 0.612 | 0.607 | 0.618 | 0.623 | 0.619 | 0.615 | 0.623 | 0.574 | 0.571 | 0.572 | 0.561 | 0.562 | 0.546 | 0.390 | – | – | – | potentiated by the low pH | 0.143 | – | Regrowth, OD600 at 6h or 8h after dilution into drug-free medium (average) ([2]; drug concentration 0.1): 0.578; Regrowth, OD600 at 6h or 8h after dilution into drug-free medium (average) ([2]; drug concentration 0.5): 0.347; Regrowth, OD600 at 6h or 8h after dilution into drug-free medium (average) ([2]; drug concentration 2.5): 0.205; EC50 [2]: 0.359 µM
3 | CCCCCCCCN=c1ccn(CCCCCCCCCCn2ccc(=NCCCCCCCC)cc2)cc1 [Octenidine] | – | – | – | – | – | 0.188 | 0.074 | – | – | – | – | – | 0.071 | 0.077 | 7.95 µM | 7.67 µM | 4.41 µM | potentiated by the low pH | 0.086 | 3.3 µM | Regrowth, OD600 at 6h or 8h after dilution into drug-free medium [1, 21]: 0.612; Regrowth, OD600 at 6h or 8h after dilution into drug-free medium [1, 22]: 0.602; Regrowth, OD600 at 6h or 8h after dilution into drug-free medium [1, 23]: 0.603; Regrowth, OD600 at 6h or 8h after dilution into drug-free medium [1, 24]: 0.605; Regrowth, OD600 at 6h or 8h after dilution into drug-free medium [1, 25]: 0.549; Regrowth, OD600 at 6h or 8h after dilution into drug-free medium [1, 26]: 0.551; Regrowth, OD600 at 6h or 8h after dilution into drug-free medium [1, 27]: 0.543; Regrowth, OD600 at 6h or 8h after dilution into drug-free medium [1, 28]: 0.551; Regrowth, OD600 at 6h or 8h after dilution into drug-free medium [1, 29]: 0.544; Regrowth, OD600 at 6h or 8h after dilution into drug-free medium [1, 30]: 0.198; Regrowth, OD600 at 6h or 8h after dilution into drug-free medium ([2]; concentration 0.1): 0.879; Regrowth, OD600 at 6h or 8h after dilution into drug-free medium ([2]; concentration 0.5): 0.554; Regrowth, OD600 at 6h or 8h after dilution into drug-free medium ([2]; concentration 2.5): 0.478
4 | CO[C@H]1/C=C/O[C@@]2(C)Oc3c(C)c(O)c4c(c3C2=O)C2=NC3(CCN(CC(C)C)CC3)NC2=C(NC(=O)/C(C)=C\C=C\[C@H](C)[C@H](O)[C@@H](C)[C@@H](O)[C@@H](C)[C@H](OC(C)=O)[C@@H]1C)C4=O [Rifabutin] | – | – | – | – | – | – | – | – | – | – | – | – | – | – | – | – | – | – | – | 0.032 µM | Regrowth: OD600 after dilution into drug-free medium (mean) [1, 21]: 0.656; Regrowth: OD600 after dilution into drug-free medium (mean) [1, 22]: 0.633; Regrowth: OD600 after dilution into drug-free medium (mean) [1, 23]: 0.623; Regrowth: OD600 after dilution into drug-free medium (mean) [1, 24]: 0.617; Regrowth: OD600 after dilution into drug-free medium (mean) [1, 25]: 0.605; Regrowth: OD600 after dilution into drug-free medium (mean) ([1]; E. coli in 1:4 CA-MHB (pH 7.4), concentration 10): 0.612; Regrowth: OD600 after dilution into drug-free medium (mean) [1, 26]: 0.569; Regrowth: OD600 after dilution into drug-free medium (mean) [1, 27]: 0.563; Regrowth: OD600 after dilution into drug-free medium (mean) [1, 28]: 0.555; Regrowth: OD600 after dilution into drug-free medium (mean) [1, 29]: 0.521; Regrowth: OD600 after dilution into drug-free medium (mean) [1, 30]: 0.497; Regrowth: OD600 after dilution into drug-free medium (mean) ([1]; E. coli in LPM (pH 5.5), concentration 10): 0.485; Regrowth: OD600 after dilution into drug-free medium (mean) ([2]; concentration 0.1): 0.129; Regrowth: OD600 after dilution into drug-free medium (mean) ([2]; concentration 0.5): 0.135; Regrowth: OD600 after dilution into drug-free medium (mean) ([2]; concentration 2.5): 0.130; Regrowth: OD600 after dilution into drug-free medium (mean) ([2]; concentration 10): 0.096

Source: PMC11992225, “Antibacterial compounds against non-growing and intracellular bacteria” (npj Antimicrobials and Resistance, 2025)
